Test results as given in patent publication US6033669A, “Methods for generating cytotoxic T cells and treatment of diseases thereby” (priority 1992, dated 2000).
Read-outs that look alike come from different tables or passages of the source. Non-standard residues stand in square brackets, D forms with d. Residues, ends and D or L forms follow the SMILES beside them. *: point of attachment. CH2CH2O(Galα1-4Galβ) = OC[C@H]1O[C@H](O[C@@H]2[C@H](O)[C@@H](O)[C@H](OCC*)O[C@@H]2CO)[C@H](O)[C@@H](O)[C@H]1O; X1 = OC[C@H]1O[C@H](O[C@@H]2[C@H](O)[C@@H](O)[C@H](*)O[C@@H]2CO)[C@H](O)[C@@H](O)[C@H]1O; hCys = N[C@@H](CCS)C(=O)O

Columns and labels:
[1] = tested on: target cells coated with different peptides and glycopeptides; experiment: Immunogenicity: mice immunized with glycopeptides, restimulated CTL tested for killing of coated target cells; assay type: in vivo; details: for Comments: Table 5, comment on immunogenicity and cross-reactivity of CTL
[2] = tested on: RMA-S cells; experiment: Membrane expression of the CHO part (Gal2) by antibody staining in FACS; assay type: cell-based; details: data not shown
Procedure: Panel A: RMA-s cells were incubated for 24 hours at 26° C. to induce expression of empty D^b MHC-1 chains at the cell surface, and at 37° C., and stained for D^b expression. Panel B: Removal of D^b expression by pronase treatment of RMA-S cells, preincubated at 26° C. Pronase treatment for 2 h and 4 h. D^b removal is complete at 4 h. Panels C and E: 26° C. induced RMA-S cells were treated with the glycopeptides Gal2 -CSG11 (panel C) or Gal2 CAS10 (panel E), 300 μM for 2 h at 37° C., washed and stained for Gal2 expression. Panels D and F: Glycopeptide treated RMA-S cells as in panels C and E were pronase treated to remove Db and glycopeptide expression, washed and further incubated at 37° C. to allow re-expression of glycopeptides and stained for Gal2 expression.
When the glycopeptide bind to MHC-1, on the cell surface, the expression (and acessibility) of the corresponding CHO part, can be detected by antibody staining in FACS, as described above in relation to FIGS. 10C and E.

[3] = tested on: monoclonal antibody MC2101; experiment: ELISA recognition of Gal2 glycopeptides by monoclonal antibody MC2101; assay type: binding, mouse; details: for Absorbance at 405 nm: antibody MC2101 (specificity Galabios Gal--Gal), peptides coated at 50 μg/ml, pH 9.6
Procedure: (§1) Peptides (50 μg/ml) were diluted in 0.05 M carbonate buffer (pH 9.6) and 100 μl/well was added to flat-bottomed Costar microplates (cat. No 3590) for incubation over-night at 4° C. Plates were washed once with PBS, pre-incubated with […] for 30 minutes at room temperature and washed twice with PBS/0.05% Tween buffer. Monoclonal antibodies were diluted in 0.5% gelatin/PBS/0.05% Tween, added to microplates and incubated for 2 hours at room temperaure, and flick-washed with PBS/Tween. Alkaline phosphatase conjugated rabbit anti-mouse immunoglobulins (Dakopauts code No. S 414) was diluted 1/1000 in PBS/Tween and added as 100 μl/well. After 2 hours incubation at room temperature and 4 washes with PBS/Tween, 100 μl of alkaline phosphatase substrate solution was added. Plates were read after 2 hour at room temperaure, using a Multiskan System (Lab systems), for optical density at 405 nm.
The ELISA assay was performed as described in connection with Table 4.

[4] = tested on: monoclonal antibody Pk002; experiment: ELISA recognition of Gal2 glycopeptides by monoclonal antibody Pk002; assay type: binding, mouse; details: antibody Pk002 (specificity Globotriaosyl Gal--Gal--Glc, CD77); peptides coated at 50 μg/ml, pH 9.6
Procedure: as §1

[5] = tested on: EL4 target cells
[6] = tested on: EL4 and RMA-S cells; assay type: cell-based, mice; details: FIG. 11
[7] = tested on: pep 9(PR8)-coated RMA target cells; experiment: Kinetics of CTL activity after one s.c. injection of peptide (51Cr release); assay type: in vivo, mice; details: primed once with 100 μg
[8] = 100 μg s.c., restimulated with 5 μM in vitro
[9] = priming 1 μg, restimulation 0.05 μM, effector:target 20:1
[10] = priming 1 μg, restimulation 0.05 μM, effector:target 40:1
[11] = priming 1 μg, restimulation 5.00 μM, effector:target 20:1
[12] = priming 1 μg, restimulation 5.00 μM, effector:target 40:1
[13] = priming 10 μg, restimulation 0.05 μM, effector:target 20:1
[14] = priming 10 μg, restimulation 0.05 μM, effector:target 40:1
[15] = priming 10 μg, restimulation 5.00 μM, effector:target 20:1
[16] = priming 10 μg, restimulation 5.00 μM, effector:target 40:1
[17] = priming 100 μg, restimulation 0.05 μM, effector:target 20:1
[18] = priming 100 μg, restimulation 0.05 μM, effector:target 40:1
[19] = priming 100 μg, restimulation 5.00 μM, effector:target 20:1
[20] = priming 100 μg, restimulation 5.00 μM, effector:target 40:1

## FAP9: K^b binding peptide, SEQ ID NO: 20; sequence not printed (FAPGNYPAL)
[1]
  Comments: Strong, with high FAP9-5h reactivity

## CC[C@H](C)[C@H](NC(=O)[C@H](CCC(=O)O)NC(=O)[C@@H]1CCCN1C(=O)[C@@H]1CCCN1C(=O)[C@@H](NC(=O)[C@H](CC(N)=O)NC(=O)[C@H](CO)NC(=O)[C@@H]1CCCN1C(=O)CNC(=O)[C@H](CO)NC(=O)[C@@H](N)CSCCO[C@@H]1O[C@H](CO)[C@H](O[C@H]2O[C@H](CO)[C@H](O)[C@H](O)[C@H]2O)[C@H](O)[C@H]1O)[C@@H](C)O)C(=O)O [Gal2 -CSG11]
[2]
  expression of the Gal2 epitope on the surface of cells that have bound glycopeptides (FACS): high Gal2 expression
[3]
  reactivity with MC2101 in ELISA, comparison: reacted stronger than the GAL2 -CAS10 peptide
  Absorbance at 405 nm: 1.86
[4]
  Absorbance at 405 nm: 0.04

## F A P G h Y P A L [FAP9-5h]
[1]
  Comments: Weaker, low FAP9 reactivity

## CC(C)C[C@H](NC(=O)CNC(=O)[C@H](CCC(N)=O)NC(=O)[C@H](Cc1ccc(O)cc1)NC(=O)[C@H](CCSCCO[C@@H]1O[C@H](CO)[C@H](O[C@H]2O[C@H](CO)[C@H](O)[C@H](O)[C@H]2O)[C@H](O)[C@H]1O)NC(=O)[C@H](Cc1ccc(O)cc1)NC(=O)CNC(=O)[C@@H](N)CCCNC(=N)N)C(=O)O [RGY8-4h-Gal2] (H-RGY[hCys](CH2CH2O(Galα1-4Galβ))YQGL-OH)
[1]; FIG. 14(A)
  CTL generated, tested against EL-4 cells coated with RGY8-4 h-Gal2 and RGY8-4 h: both peptide and glycopeptide specific CTL cells are generated
[1]; FIG. 14(B), criss-cross
  killing of EL-4 cells coated with SGV12-Gal2 or SGV12 by generated CTL: only the cells coated with glycopeptide were killed

## CC(C)C[C@H](NC(=O)[C@H](CSCCO[C@@H]1O[C@H](CO)[C@H](O[C@H]2O[C@H](CO)[C@H](O)[C@H](O)[C@H]2O)[C@H](O)[C@H]1O)NC(=O)[C@H](Cc1ccc(O)cc1)NC(=O)CNC(=O)CNC(=O)[C@@H]1CCCN1C(=O)[C@H](CC(N)=O)NC(=O)[C@H](CCC(=O)O)NC(=O)[C@@H](NC(=O)CNC(=O)[C@@H](N)CO)C(C)C)C(=O)N[C@H](C(=O)O)[C@@H](C)O [SGV12-Gal2]
[2]
  expression of the Gal2 epitope on the surface of cells that have bound glycopeptides (FACS): high Gal2 expression
[1]; FIG. 13
  killing of EL-4 cells coated with glycopeptide 7 by generated CTL: at a lower level
  killing of EL-4 cells coated with glycopeptides 2 and 5 by generated CTL: killed
  recognition of carrier peptide alone (SGV12) and other control peptides by generated CTL: did not recognize the carrier peptide alone
[1]; mouse, in vivo
  type of T cell response generated by immunization: Gal2 specific T cell response

## ASNENMDAM [pep 9(NT60)]
[5]; 0.05 μM used for restimulation versus 5 μM and 0.5 μM, 100 μg s.c.
  lysis of virus specific and peptide-coated EL4 cells by induced CTL: more efficiently lysed
[5]; compared with pep 9(PR8), FIG. 3
  anti-peptide and antiviral CTL responses: stronger anti-peptide and antiviral CTL responses
[5]; mouse, in vivo
  specificity of induced CTL: preferentially killed their corresponding peptide-coated and virus-infected cells

## ASNENMETM [pep 9(PR8), NP366-374 of influenza A virus strain A/PR/8/34]
[5]; [8]
  CTL response against pep 9(PR8)-coated RMA and EL4 cells: strong CTL response
  killing of virus-infected target cells: not killed
[5]; FIG. 7a
  lysis of pep 9(PR8)-coated EL4 cells by CTL depleted for CD8^+ T cells: failed to lyse
[5]; FIG. 7a, pep 9(PR8)-coated target cells
  effect of depletion of CD4^+ T cells on cytolytic activity: did not affect the cytolytic activity
[5]; immunization with 10 μg and 1 μg
  CTL response: less or even no CTL response
[5]; mouse, in vivo
  MHC restriction of peptide-induced cytotoxicity: H-2D^b restricted
  specificity of induced CTL: preferentially killed their corresponding peptide-coated and virus-infected cells
[5]; [9]
  EL4 target lysis (%) PR8-infected: 10.50%
  EL4 target lysis (%) Untreated: 3.32%
  EL4 target lysis (%) pep9(PR8)-coated: 15.54%
[5]; [10]
  EL4 target lysis (%) PR8-infected: 12.43%
  EL4 target lysis (%) Untreated: 4.08%
  EL4 target lysis (%) pep9(PR8)-coated: 16.44%
[5]; [11]
  EL4 target lysis (%) PR8-infected: 5.54%
  EL4 target lysis (%) Untreated: 2.66%
  EL4 target lysis (%) pep9(PR8)-coated: 9.28%
[5]; [12]
  EL4 target lysis (%) PR8-infected: 6.88%
  EL4 target lysis (%) Untreated: 3.34%
  EL4 target lysis (%) pep9(PR8)-coated: 11.85%
[5]; [13]
  EL4 target lysis (%) PR8-infected: 23.75%
  EL4 target lysis (%) Untreated: 4.14%
  EL4 target lysis (%) pep9(PR8)-coated: 34.60%
[5]; [14]
  EL4 target lysis (%) PR8-infected: 31.19%
  EL4 target lysis (%) Untreated: 5.74%
  EL4 target lysis (%) pep9(PR8)-coated: 45.52%
[5]; [15]
  EL4 target lysis (%) PR8-infected: 13.98%
  EL4 target lysis (%) Untreated: 4.19%
  EL4 target lysis (%) pep9(PR8)-coated: 22.09%
[5]; [16]
  EL4 target lysis (%) PR8-infected: 15.04%
  EL4 target lysis (%) Untreated: 5.63%
  EL4 target lysis (%) pep9(PR8)-coated: 23.54%
[5]; [17]
  EL4 target lysis (%) PR8-infected: 30.07%
  EL4 target lysis (%) Untreated: 0.51%
  EL4 target lysis (%) pep9(PR8)-coated: 50.73%
[5]; [18]
  EL4 target lysis (%) PR8-infected: 30.76%
  EL4 target lysis (%) Untreated: 0.12%
  EL4 target lysis (%) pep9(PR8)-coated: 59.42%
[5]; [19]
  EL4 target lysis (%) PR8-infected: 8.50%
  EL4 target lysis (%) Untreated: 4.21%
  EL4 target lysis (%) pep9(PR8)-coated: 34.73%
[5]; [20]
  EL4 target lysis (%) PR8-infected: 7.00%
  EL4 target lysis (%) Untreated: 4.61%
  EL4 target lysis (%) pep9(PR8)-coated: 43.68%
[6]
  killing of peptide treated RMA-S and EL-4 target cells by influenza A (PR8) specific CTL: strongly killed
[7]
  CTL activity at day 30 after priming: lower level of CTL activity could still be detected
[7]; restimulated with 5 μM, effector:target 60:1
  time of peak CTL activity after the immunization: 7 days

## CSGPSNTPPEI [CSG11]
[3]
  Absorbance at 405 nm: 0.01
[4]
  Absorbance at 405 nm: 0.08

## CSCC[C@H](NC(=O)[C@@H](NC(=O)[C@H](CCC(=O)O)NC(=O)[C@H](CCSC)NC(=O)[C@H](CC(N)=O)NC(=O)[C@H](CCC(=O)O)NC(=O)[C@H](CC(N)=O)NC(=O)[C@H](CO)NC(=O)[C@H](C)NC(=O)[C@@H](N)CSCCO[C@@H]1O[C@H](CO)[C@H](O[C@H]2O[C@H](CO)[C@H](O)[C@H](O)[C@H]2O)[C@H](O)[C@H]1O)[C@@H](C)O)C(=O)O [Gal2 -CAS10]
[3]
  Absorbance at 405 nm: 0.41
[4]
  Absorbance at 405 nm: 0.04

## C A S N E N M E T M (CASNENMETM) [CAS10]
[3]
  Absorbance at 405 nm: 0.02
[4]
  Absorbance at 405 nm: 0.01

## R G Y h Y Q G L [RGY8-4h]
[1]
  Comments: Strong, with RGY8 reactivity

## RGYVYQGL [RGY8]
[1]
  Comments: Some RGY8-4h reactivity

## CSCC[C@H](NC(=O)[C@@H](NC(=O)[C@H](CCC(=O)O)NC(=O)[C@H](CO[C@@H]1O[C@H](CO)[C@H](O[C@H]2O[C@H](CO)[C@H](O)[C@H](O)[C@H]2O)[C@H](O)[C@H]1O)NC(=O)[C@H](CC(N)=O)NC(=O)[C@H](CCC(=O)O)NC(=O)[C@H](CC(N)=O)NC(=O)[C@H](CO)NC(=O)[C@H](C)N)[C@@H](C)O)C(=O)O [Conjugate A5N9-6S-Gal2] (H-ASNENS(X1)ETM-OH)
[2]
  expression of the Gal2 epitope on the surface of cells that have bound glycopeptides (FACS): not recognized

## CC(C)C[C@H](NC(=O)CNC(=O)[C@H](CCC(N)=O)NC(=O)[C@H](Cc1ccc(O)cc1)NC(=O)[C@@H](NC(=O)[C@H](Cc1ccc(O)cc1)NC(=O)CNC(=O)[C@H](CCCNC(=N)N)NC(=O)[C@@H](N)CSCCO[C@@H]1O[C@H](CO)[C@H](O[C@H]2O[C@H](CO)[C@H](O)[C@H](O)[C@H]2O)[C@H](O)[C@H]1O)C(C)C)C(=O)O [Gal2 -CRG9]
[2]
  expression of the Gal2 epitope on the surface of cells that have bound glycopeptides (FACS): high Gal2 expression
